Source: US12459925B2, “Sulphonyl urea derivatives as NLRP3 inflammasome modulators” (priority 2017, dated 2025)
Read-outs that look alike come from different tables or passages of the source.

System: IL-1β release upon NLRP3 activation in peripheral blood mononuclear cells (PBMC)
Test: PBMC IC50 determination assay (IL-1β release, Protocol A ELISA / Protocol B HTRF)
Type: cell-based
Conditions: Homo sapiens
Description: The compounds of the present disclosure were tested for their inhibitory activity against IL-1β release upon NLRP3 activation in peripheral blood mononuclear cells (PBMC).
Isolated cells were seeded into the wells of a 96-well plate and incubated for 3 h with lipopolysaccharide (LPS). Following medium exchange, the compounds of the present disclosure were added (a single compound per well) and the cells were incubated for 30 min. Next, the cells were stimulated either with ATP (5 mM) or nigericin (10 μM) for 1 h and the cell culture media from the wells were collected for further analysis.
The release of IL1-β into the media was determined by a quantitative detection of IL-1β in the media using an IL-1β enzyme-linked immunosorbent assay (ELISA) Ready-SET-Go!, eBioscience cat. […] Subsequently, plates were blocked with blocking buffer for 1 h at room temperature (rt) and after washing with a buffer (PBS with 0.05% Tween-20) incubated with protein standard and culture media. […] Plates were washed and incubated with HRP-streptavidin for 30 min at rt and washed again. The signal was developed after addition of 3,3′,5,5′-tetramethylbenzidine-peroxidase (TMB) until colour appeared and the reaction was stopped by 2 M H2SO4. A microplate spectrophotometer (BioTek) was used to detect signals with 450 nm. The detection range of IL-1β ELISA was 2-150 ng/ml.
Isolated cells were seeded into the wells (280,000 cells/well) of a 96-well plate and incubated for 3 h with lipopolysaccharide (LPS, 1 μg/ml diluted 1000× from a 1 mg/ml stock solution). The compounds of the present disclosure were added (a single compound per well) and the cells were incubated for 30 min. Next, the cells were stimulated with ATP (5 mM final concentration diluted 20× from a 100 mM stock solution) for 1 h and the cell culture media from the wells were collected for further analysis.
The release of IL-1β into the media was determined by quantitative detection of IL-1β in the media using HTRF®, CisBio cat. No. 62HIL1BPEH. Briefly, cell culture supernatant were dispensed directly into the assay plate containing antibodies labelled with the HTRF® donor and acceptor. A microplate spectrophotometer (BMG) was used to detect signals at 655 nm and 620 nm. The detection range of IL-1β HTRF® was 39-6500 pg/ml.

[1] = PBMC primed with LPS 3 h, compound 30 min, stimulated with ATP (5 mM) or nigericin (10 μM) 1 h, IL-1β in media, read-out: Average PBMC IC50
[2] = PBMC, read-out: Average PBMC IC50 (μM)

Cn1cnc(N(C2CCOCC2)S(=O)(=O)NC(=O)Nc2c3c(cc4c2CCC4)CCC3)c1 [Compound 21]
IC50 [1]: 3 to 10 µM

Cn1cc(N(C2CCOC2)S(=O)(=O)NC(=O)Nc2c3c(cc4c2CCC4)CCC3)cn1 (centres unmarked) [Compound 8]
IC50 [1]: < 1 µM

Cc1csc(N(C2CCOCC2)S(=O)(=O)NC(=O)Nc2c3c(cc4c2CCC4)CCC3)n1 [Compound 108]
IC50 [1]: < 1 µM

Cn1cc(N(C2CCOCC2)S(=O)(=O)NC(=O)Nc2cc(Cl)cc(OCC(F)(F)F)c2)cn1 [Compound 106]
IC50 [1]: < 1 µM

CN1CC(N(c2cnn(C)c2)S(=O)(=O)NC(=O)Nc2c3c(cc4c2CCC4)CCC3)CCC1=O (centres unmarked) [Compound 82]
IC50 [1]: < 1 µM

CN1CC(N(c2cnn(C)c2)S(=O)(=O)NC(=O)Nc2c3c(cc4c2CCC4)CCC3)C1 [Compound 59]
IC50 [1]: < 1 µM

CCc1cc(C)cc(NC(=O)NS(=O)(=O)N(c2cnn(C)c2)C2CCOCC2)c1 [Compound 76]
IC50 [1]: 1 to 3 µM

CN1CCC(CN(c2cnn(C)c2)S(=O)(=O)NC(=O)Nc2c3c(cc4c2CCC4)CCC3)C1 (centres unmarked) [Compound 57]
IC50 [1]: < 1 µM

CN1CCC[C@H]1CN(c1cnn(C)c1)S(=O)(=O)NC(=O)Nc1c2c(cc3c1CCC3)CCC2 [Compound 107]
IC50 [1]: < 1 µM

CN1CCC[C@@H]1CN(c1cnn(C)c1)S(=O)(=O)NC(=O)Nc1cc(Cl)cc(Cl)c1 [Compound 112]
IC50 [1]: < 1 µM

Cn1cc(N(C2CCOCC2)S(=O)(=O)NC(=O)Nc2cc(Cl)cc(Cl)c2F)cn1 [Compound 94]
IC50 [1]: 1 to 3 µM

Cc1c(N(C2CCN(C)CC2)S(=O)(=O)NC(=O)Nc2c3c(cc4c2CCC4)CCC3)cnn1C [Compound 14]
IC50 [1]: < 1 µM

CN1CCC(N(c2cnn(C)c2)S(=O)(=O)NC(=O)Nc2c3c(cc4c2CCC4)CCC3)C1 (centres unmarked) [Compound 24]
IC50 [1]: < 1 µM

CC(C)c1cc(Cl)cc(NC(=O)NS(=O)(=O)N(c2cnn(C)c2)C2CCOCC2)c1 [Compound 89]
IC50 [1]: 1 to 3 µM

CCc1cc(NC(=O)NS(=O)(=O)N(c2cnn(C)c2)C2CCOCC2)cc(CC)c1F [Compound 80]
IC50 [1]: 1 to 3 µM

Cn1cc(N(C2CC3(C2)CN(CC(F)(F)F)C3)S(=O)(=O)NC(=O)Nc2c3c(cc4c2CCC4)CCC3)cn1 [Compound 69]
IC50 [1]: 3 to 10 µM

CCc1cc(NC(=O)NS(=O)(=O)N(C[C@@H]2CCCN2C)c2cnn(C)c2)cc(C(F)(F)F)c1 [Compound 102]
IC50 [1]: < 1 µM

CN1CC2(CC(N(c3cnn(C)c3)S(=O)(=O)NC(=O)Nc3c4c(cc5c3CCC5)CCC4)C2)C1 [Compound 58]
IC50 [1]: 10 to 50 µM

CC1CN(CCN(c2cnn(C)c2)S(=O)(=O)NC(=O)Nc2c3c(cc4c2CCC4)CCC3)C1 [Compound 74]
IC50 [1]: 3 to 10 µM

CN1CCC(N(c2ccn(C)n2)S(=O)(=O)NC(=O)Nc2c3c(cc4c2CCC4)CCC3)CC1 [Compound 20]
IC50 [1]: < 1 µM

CN1CCC(N(c2cnn(C)c2)S(=O)(=O)NC(=O)Nc2c3c(cc4c2CCC4)CCC3)CC1C(F)(F)F (centres unmarked) [Compound 60]
IC50 [1]: < 1 µM

Cc1noc(N(C2CCOCC2)S(=O)(=O)NC(=O)Nc2c3c(cc4c2CCC4)CCC3)c1C [Compound 87]
IC50 [1]: < 1 µM

O=C(Nc1c2c(cc3c1CCC3)CCC2)NS(=O)(=O)N(c1cnn(C(F)F)c1)C1CCOCC1 [Compound 25]
IC50 [1]: < 1 µM

CN1CCC[C@@H]1CN(c1cnn(C)c1)S(=O)(=O)NC(=O)Nc1c2c(cc3c1CCC3)CCC2 [Compound 110]
IC50 [1]: < 1 µM

CC(C)c1cc(NC(=O)NS(=O)(=O)N(c2cnn(C)c2)C2CCOCC2)cc(C(C)C)c1 [Compound 73]
IC50 [1]: 1 to 3 µM

CC(C)n1cc(N(C2CCCN(C)C2)S(=O)(=O)NC(=O)Nc2c3c(cc4c2CCC4)CCC3)cn1 (centres unmarked) [Compound 55]
IC50 [1]: < 1 µM

CCc1cc(NC(=O)NS(=O)(=O)N(C[C@H]2CCCN2C)c2cnn(C)c2)cc(C(F)(F)F)c1 [Compound 114]
IC50 [1]: < 1 µM

CN1CCC(N(c2cnn(C(F)F)c2)S(=O)(=O)NC(=O)Nc2c3c(cc4c2CCC4)CCC3)CC1 [Compound 34]
IC50 [1]: < 1 µM

CCc1cc(N(C2CCOCC2)S(=O)(=O)NC(=O)Nc2c3c(cc4c2CCC4)CCC3)on1 [Compound 109]
IC50 [1]: < 1 µM

CCN1CCC(N(c2cnn(C)c2)S(=O)(=O)NC(=O)Nc2c3c(cc4c2CCC4)CCC3)C1 (centres unmarked) [Compound 50]
IC50 [1]: < 1 µM

CN1CCC1CN(c1cnn(C)c1)S(=O)(=O)NC(=O)Nc1c2c(cc3c1CCC3)CCC2 (centres unmarked) [Compound 111]
IC50 [1]: < 1 µM

CN(C)CCn1cc(N(C2CCOCC2)S(=O)(=O)NC(=O)Nc2c3c(cc4c2CCC4)CCC3)cn1 [Compound 43]
IC50 [1]: < 1 µM

Cn1cc(N(C2CCN(CC(F)F)CC2)S(=O)(=O)NC(=O)Nc2c3c(cc4c2CCC4)CCC3)cn1 [Compound 45]
IC50 [2]: 1 to 3 µM

Cn1cc(N(C2CCCOC2)S(=O)(=O)NC(=O)Nc2c3c(cc4c2CCC4)CCC3)cn1 (centres unmarked) [Compound 22]
IC50 [1]: < 1 µM

CCc1cc(NC(=O)NS(=O)(=O)N(c2cnn(C)c2)C2CCOCC2)cc(C(C)C)c1 [Compound 81]
IC50 [1]: 1 to 3 µM

CCn1cc(N(C2CCOCC2)S(=O)(=O)NC(=O)Nc2c3c(cc4c2CCC4)CCC3)cn1 [Compound 6]
IC50 [1]: < 1 µM

O=C(Nc1c2c(cc3c1CCC3)CCC2)NS(=O)(=O)N(c1cnoc1)C1CCOCC1 [Compound 13]
IC50 [1]: < 1 µM

COCCn1cc(N(C2CCN(C)CC2)S(=O)(=O)NC(=O)Nc2c3c(cc4c2CCC4)CCC3)cn1 [Compound 38]
IC50 [1]: < 1 µM

C[C@@H]1CC(N(c2cnn(C)c2)S(=O)(=O)NC(=O)Nc2c3c(cc4c2CCC4)CCC3)CCO1 (some centres unmarked) [Compound 85]
IC50 [1]: < 1 µM

Cn1cc(N(C2CCOCC2(C)C)S(=O)(=O)NC(=O)Nc2c3c(cc4c2CCC4)CCC3)cn1 (centres unmarked) [Compound 78]
IC50 [1]: < 1 µM

CN1CCC(N(c2cnn(C)c2)S(=O)(=O)NC(=O)Nc2c3c(cc4c2CCC4)CCC3)CC1 [Compound 2]
IC50 [1]: < 1 µM

Cn1cc(N(C2CN3CCC2CC3)S(=O)(=O)NC(=O)Nc2c3c(cc4c2CCC4)CCC3)cn1 (centres unmarked) [Compound 54]
IC50 [2]: < 1 µM

Cn1cnc(N(C2CCOCC2)S(=O)(=O)NC(=O)Nc2c3c(cc4c2CCC4)CCC3)n1 [Compound 19]
IC50 [1]: 3 to 10 µM

N#CCn1cc(N(C2CCOCC2)S(=O)(=O)NC(=O)Nc2c3c(cc4c2CCC4)CCC3)cn1 [Compound 30]
IC50 [1]: < 1 µM

CC(C)c1cccc(NC(=O)NS(=O)(=O)N(c2cnn(C)c2)C2CCOCC2)c1 [Compound 71]
IC50 [1]: 10 to 50 µM

O=C(Nc1c2c(cc3c1CCC3)CCC2)NS(=O)(=O)N(c1cn[nH]c1)C1CCOCC1 [Compound 48]
IC50 [2]: < 1 µM

CC(C)N1CCC(N(c2cnn(C)c2)S(=O)(=O)NC(=O)Nc2c3c(cc4c2CCC4)CCC3)C1 (centres unmarked) [Compound 51]
IC50 [1]: < 1 µM

CC(C)N1CCC(N(c2cnn(C)c2)S(=O)(=O)NC(=O)Nc2c3c(cc4c2CCC4)CCC3)CC1 [Compound 33]
IC50 [1]: 1 to 3 µM

Cn1cc(N(C2CCN(CC(F)(F)F)C2)S(=O)(=O)NC(=O)Nc2c3c(cc4c2CCC4)CCC3)cn1 (centres unmarked) [Compound 61]
IC50 [1]: < 1 µM

COCn1cc(N(C2CCOCC2)S(=O)(=O)NC(=O)Nc2c3c(cc4c2CCC4)CCC3)cn1 [Compound 27]
IC50 [1]: < 1 µM

Cc1cc(N(C2CCOCC2)S(=O)(=O)NC(=O)Nc2c3c(cc4c2CCC4)CCC3)no1 [Compound 12]
IC50 [1]: 3 to 10 µM

CC(C)N1CC(N(c2cnn(C)c2)S(=O)(=O)NC(=O)Nc2c3c(cc4c2CCC4)CCC3)C1 [Compound 64]
IC50 [1]: < 1 µM

CC(C)n1cc(N(C2CCN(C)CC2)S(=O)(=O)NC(=O)Nc2c3c(cc4c2CCC4)CCC3)cn1 [Compound 5]
IC50 [1]: < 1 µM
